One substance from PMC2764262 (Experimental cell research, 2008) can be followed below.

Data set [1] concerns human brain microvascular endothelial cells (HBMEC). The data set is described as follows: BrdU labeling assay, cell proliferation. Type of data set: cell-based. The conditions noted are these: 25 µM peptide, 48 h, 0.1% FBS, no FGF-2. Background: Uptake of a labelled nucleoside into DNA is a usual measure of proliferation.
Data set [2] is described as follows: Circular dichroism spectroscopy, secondary structure. In kind it is physicochemical. The conditions noted are these: 1 mg/ml in Hanks balanced salt solution, 37 °C, up to day 6 (WT: by day 3).
Data set [3] concerns FGFR-1. The data set is described as follows: FGFR-1 phosphorylation. In kind it is cell-based, human. Conditions: HBMEC, 5 µM peptide, FGF-2 20 ng/ml 15 min; IP anti-FGFR-1, anti p-Tyr.
In data set [4] the test system is human brain microvascular endothelial cells (HBMEC). Description: BrdU labeling assay, proliferation induced by FGF-2. The conditions noted are these: FGF-2 20 ng/ml, 48 h. Type of data set: cell-based.
For data set [5], the system named is FGF-2. The data set is described as follows: FGF-2 production by Western blotting. In kind it is cell-based, human. Conditions: HBMEC, 5 µM peptide, 18 h; Western blot.
For data set [6], the system named is human brain microvascular endothelial cells (HBMEC). Description: Pseudo-capillary sprouting, microcarrier culture in fibrin gel. In kind it is cell-based. The conditions noted are these: HBMEC on microcarriers in fibrin gel, FGF-2 20 ng/ml, 5 µM peptide, day 2.
Data set [7] concerns Akt. Description: Akt phosphorylation by Western blotting. Type of data set: cell-based, human. Conditions: HBMEC, 5 µM peptide, 30 min, FGF-2 20 ng/ml; Western blot. (In general: Immunoblotting shows a protein as a band on a membrane.)
Data set [8] has as its system caspase-3. The data set is described as follows: Cleaved caspase-3 expression by Western blotting. The conditions noted are these: HBMEC, 5 µM peptide, 18 h, FGF-2 20 ng/ml. Type of data set: cell-based, human.
A short description of data set [9]: Peptide solubility on aging. The conditions noted are these: 1 mg/ml in Hanks' Balanced Salt Solution, 37 °C, up to 6 days; O.D. 280 nm after centrifugation.

Take “E22Q: Synthetic Aβ (1–40) peptide bearing the E22Q (Dutch) mutation”: in data set [1], the “inhibition of cell proliferation (BrdU incorporation)” value is “total inhibition”. Besides, in data set [2], the “secondary structure by CD on further incubation” value was “the β-sheet content increased”. Besides, the “FGFR-1 phosphorylation in response to FGF-2” value in data set [3] is given as “reduced phosphorylation to levels observed in quiescent cells”. For the same substance, the “inhibition of FGF-2-induced BrdU incorporation” value in data set [4] (1 µM peptide) is recorded as 60%; in data set [4] (concentrations higher than 1 µM (up to 25 µM)) it was > 90%. In [5], the FGF-2 expression entry is “decreased expression”. Moreover, the “reduction of pseudo-capillary sprouting area” value in [6] is “nearly suppressed”. In data set [7], the “FGF-2-induced Akt phosphorylation” value is “marked reduction”. Further, the “caspase-3 activation with concomitant FGF-2 administration” value in data set [8] is “failed to prevent caspase-3 activation”. Further, the “solubility relative to the other peptides” value in data set [9] is on record as “lower values than those of WT”.
